The text below walks through data of patent US8283339B2, “Vinyl phosphonate lysophosphatidic acid receptor antagonists” (University of Virginia Patent Foundation, priority 2006, dated 2012).

Like-named read-outs stand apart in the source and are kept apart here.

The subject of assay [1] is osteo-tropic subclone of the human breast CA line, MDA MB-231. To be noted: athymic (nude) mice injected with MDA MB-231 subclone; as described in Boucharaba et al. (2006); cited from earlier work.
Assay [2] deals with LPA inhibition of adenylyl cyclase activation in rat glioma C62B cells. The assay is described as follows: LPA-driven adenylyl cyclase inhibition in rat glioma cells (relief by antagonist). The class given is cell-based. As to conditions: isoproterenol-stimulated cAMP accumulation, all in a dose-dependent manner, FIG. 3. The source says: FIG. 3 is a graphic representation of LPA-driven adenylyl cyclase inhibition in C6 glioma cells.
Rat glioma C62B cells accumulate cAMP in response to isoproterenol, and this stimulation of adenylyl cyclase is blocked by LPA. As shown, the LPA inhibition of adenylyl cyclase activation is relieved by addition of VPC51299, VPC52172, VPC52173, and VPC52178, all in a dose-dependent manner. Results are illustrated in FIG. 3.

Assay [3] deals with osteo-tropic subclone of the human breast CA line, MDA MB-231. Briefly: Lytic bone metastasis in athymic (nude) mice. The class given is in vivo, mouse. As to conditions: athymic (nude) mice injected with MDA MB-231 subclone; treated for two weeks; FIG. 13. Here is the method:
Mice are tested for assessing lytic bone metastasis. Athymic (nude) mice were injected with a osteo-tropic subclone of the human breast CA line, MDA MB-231. After two weeks the bones are scanned to assess the cancer in the bone. The cancer is treated for two weeks and the lesions are imaged. […] 103, pp. 9643-9648. The results are illustrated in FIG. 13.

Assay [4] relates to Adult male Sprague Dawley rats. The assay is described as follows: Chronic constriction injury (CCI) model of neuropathic pain: thermal hyperalgesia and mechanical allodynia. The class given is in vivo, rat. From the text:
The chronic constriction injury (CCI) model of neuropathic pain (Bennett and Xie, Pain, 33 p 87-107 (1988)) was used to assess the efficacy of test compound VPC51299 in relieving thermal hyperalgesia and mechanical allodynia. Adult male Sprague Dawley rats were anesthetized and their sciatic nerves exposed at the level of mid-thigh. Four loose ligations of chromic gut suture were placed around the sciatic nerve and the wound was closed. For sham surgeries, the sciatic nerve was mobilized and the wound closed without ligation. The animals' responses to mechanical and thermal stimuli were assessed prior to CCI and at days 1, 3, 5, 7, and 14 after CCI.
Thermal hyperalgesia was measured using a Plantar Test Apparatus (IITC Inc, Woodland Hills, Calif.). Rats were placed on a warmed glass surface, allowed to acclimate, and a thermal stimulus was applied to the plantar surface of the hind paw. Paw withdrawal latency (PWL) is defined as the time from stimulus application to paw withdrawal. Results are illustrated in FIG. 9A.
Mechanical allodynia was measured two ways. First, a size 5.18 Von Frey monofilament (corresponding to 15.0 g.) was applied to the plantar surface of the hind paw (Touch Test Sensory Evaluator Kit from Stoelting Co., Wood Dale, Ill.). The number of paw withdrawals out of 10 three second trials was recorded. Results are illustrated in FIG. 9B. Second, the maximum withdrawal threshold was assessed using an electronic von Frey Anesthesiometer (IITC Inc, Woodland Hills, Calif.). Force was applied to the plantar surface of the hindpaw until the rat withdrew its paw. The maximum force applied to the paw before withdrawal was recorded. Results are illustrated in FIG. 9C.

With `Cc1noc(-c2ccc(CSCCC(=O)O)cc2)c1NC(=O)OC(C)c1ccccc1Cl` (stereo not shown) [Kil6425], the “size of lytic bone lesions in treated mice” value in assay [1] is “significantly smaller”.

As to `CCCCCCCCCCCCCCCC(=O)N[C@@H](/C=C/P(=O)(O)O)Cc1ccc(OCc2cc(OCC(F)(F)F)ccn2)cc1` [VPC51299, (3R)-(3-Hexadecanoylamino-4-{4-[4-(2,2,2-trifluoro-ethoxy)-pyridin-2-ylmethoxy]-phenyl}-trans-but-1-enyl)-phosphonic Acid], in assay [2], the “relief of LPA inhibition of adenylyl cyclase activation” value is listed as “relieved”. Also, in assay [3], the “size of lytic bone lesions in treated mice” value is on record as “significantly smaller”. In assay [4] (day 5, after 5 days of treatment, difference vs vehicle treated rats, Plantar Test), the “paw withdrawal latency (thermal stimulus), slower than vehicle treated rats” value worked out at 3.1 s. The “withdrawal threshold, higher than vehicle treated rats” value in assay [4] (day 5, after 5 days of treatment, electronic von Frey Anesthesiometer, difference vs vehicle treated rats) is 4.0 g. Moreover, the “number of paw withdrawals (out of 10 trials), fewer than vehicle treated rats” value in assay [4] (day 5, after 5 days of treatment, size 5.18 Von Frey monofilament (15.0 g), difference vs vehicle treated rats) came out at 3.2 times. In addition, the “efficacy in relieving thermal hyperalgesia and mechanical allodynia associated with CCI” value in assay [4] (rats with sciatic nerve ligation (CCI), FIGS. 9A-9C) is “effective in relieving some of the thermal hyperalgesia and mechanical allodynia”.

As for `CCCCCCCCCCCC(=O)N[C@@H](/C=C/P(=O)(O)O)Cc1ccc(OCc2cc(OCC(F)(F)F)ccn2)cc1` [VPC52172, (3R)-(3-Dodecanoylamino-4-{4-[4-(2,2,2-trifluoro-ethoxy)-pyridin-2-ylmethoxy]-phenyl}-trans-but-1-enyl)-phosphonic Acid], the “relief of LPA inhibition of adenylyl cyclase activation” value in assay [2] is reported as “relieved”.

As to `CCCCCCCCCC(=O)N[C@@H](/C=C/P(=O)(O)O)Cc1ccc(OCc2cc(OCC(F)(F)F)ccn2)cc1` [VPC52173, (3R)-(3-Decanoylamino-4-{4-[4-(2,2,2-trifluoro-ethoxy)-pyridin-2-ylmethoxy]-phenyl}-trans-but-1-enyl)-phosphonic Acid], the “relief of LPA inhibition of adenylyl cyclase activation” value in assay [2] was “relieved”.

With `CCCCCCCC(=O)N[C@@H](/C=C/P(=O)(O)O)Cc1ccc(OCc2cc(OCC(F)(F)F)ccn2)cc1` [VPC52178, (1R)-(3-octanoylamino-4-{4-[4-(2,2,2-trifluoro-ethoxy)-pyridin-2-ylmethoxy]-phenyl}-trans-but-1-enyl)-phosphonic Acid], in assay [2], the “relief of LPA inhibition of adenylyl cyclase activation” value is on record as “relieved”.
